Measurements from article PMC11570809, “Novel N-phenyl-2-(aniline) benzamide hydrochloride salt development for colon cancer therapy” (Frontiers in Pharmacology, 2024).
Counter-ions that a name gives are not always drawn.

Legend:
RKO cells = test: Plane colony assay, RKO; type: cell-based, human; conditions: RKO, 1, 2 and 4 µM
Procedure: (§1) In 6-well plates, HT29 cells and RKO cells (1 × 10^3 cells/well) were inoculated and maintained overnight. Then treated with N53 and N53·HCl at different concentrations for 24 h and with normal culture-medium for 7 days respectively. After that, removed supernatant and fixed by 4% paraformaldehyde for 15 min. Then fixed cells were stained with 1% crystal violet dye for 15 min and rinsed with water. Finally, colonies were counted according to rules that nonoverlapping groups of at least 50 cells. The data are all derived from three parallel experiments (n = 3) and expressed as mean ± SD.

HT29 cells = test: Plane colony assay, HT29; type: cell-based, human; conditions: HT29, 1, 2 and 4 µM
Procedure: as §1

HT29 = test: MTT anti-proliferation assay, HT29; type: cell-based, human; conditions: 72 h, read-out: IC50 ± SD HT29
Procedure: The anti-proliferation activities of synthesized compounds to colon cancer cell lines were measured by the MTT (3-[4,5-dimethyl-2-thiazolyl]-2,5-diphenyl-2H-tet razolium bromide) assay. First, the cell suspension was prepared by trypsin and the corresponding medium, cells were diluted to 5 × 10^5 cells/mL, and 96-well plates were added 200 μL per well. The plates were maintained at 37°C in a humidified atmosphere containing 5% CO2 overnight. Then compounds at gradient concentrations were added to cells in the logarithmic phase to make the final concentration at 0.5, 1, 2, 4, 8, 16, and 32 μM. The cells were treated with tested compounds for 72 h, and the growth curve assay was tested in 24 h. When the time was up, 20 μL of MTT solution (5 mg/mL in PBS) was added into each well to incubate for 4 h at 37°C. Then the supernatant liquid was removed, 150 μL DMSO was added into every well to dissolve formazan crystals and read the absorbance at 570 nm by Spark microplate spectrophotometer (Tecan, Swiss). The IC50 values were analyzed by IBM SPASS Statistics 25.0 software. The data are all derived from three parallel experiments (n = 3) and expressed as mean ± SD.

PC-3 = test: MTT anti-proliferation assay, PC-3; type: cell-based; conditions: Homo sapiens, PC-3, 72 h, read-out: IC50 ± SD PC-3
[1] = Hygroscopicity and stability of the salt forms; type: physicochemical; conditions: solid salt

For Cc1c(Cl)cccc1Nc1ccccc1C(=O)Nc1ccc(N2CCN(C)CC2)cc1 [N53·HCl, 4-(4-(2-((3-chloro-2-methylphenyl)amino)ben-zamido)phenyl)-1-methylpiperazin-1-ium], the “Number of cell clones formed” value (RKO cells) was “decreased significantly and dose-dependently”, the “Number of cell clones formed” value (HT29 cells) was “decreased significantly and dose-dependently” and the IC50 (HT29) was 2.95 ± 0.08 µM. For the same compound, the IC50 (PC-3) was 13.7 ± 0.8 µM, the Hygroscopicity [1] was “low in hygroscopicity” and the Stability [1] was “relatively stable under various conditions”.
